Laboratory results as given in patent US8092845B2, “Anti-inflammatory extract and agent and method for the production thereof” (Otkrytoe Aktsionernoe Obschestvo Zavod Ekologicheskoy …, priority 2004, dated 2012).

Key:
peritonitis in rats = assay: acute exudative inflammation (peritonitis) caused by intraperitoneal injection of acetic acid, rats; assay type: in vivo; settings: 8 mg/kg
From the text: (§1) The evaluation of the anti-inflammatory activity for Boswellik has been carried out in a model of the acute inflammatory process—peritonitis—in rats and mice, caused by the intraperitoneal injection of acetic acid.

[1] = system: isolated human blood cells; assay: in vitro synthesis of immunoglobulins by isolated human blood cells; assay type: cell-based
peritonitis in mice = assay: acute exudative inflammation (peritonitis) caused by intraperitoneal injection of acetic acid, mice; assay type: in vivo; settings: 8 mg/kg
From the text: as §1

nondescript mice = settings: both, mouse, in vivo
Procedure: Diclofenac was used for the comparison of the therapeutic activity of Boswellik. Studies were performed on both male and female nondescript mice after oral administration of the preparations.

[2] = system: formalin-induced arthritis in rabbits; assay: formalin-induced arthritis in rabbits (hematology and joint histology)
Procedure: Experiments were carried out on 51 rabbits “Chinchilla” having a weight of 2800-3200 g. […] An arthritis model was caused by administration of 0.1 ml of a 2% formalin solution into the cavity of the knee joint—and a model of acute arthritis was obtained after twenty-four hours.
The investigated agent and diclofenac were administered according to the following regimen: for preventive purposes 4 days prior to simulation of the arthritis on time per day intragastrically via a probe and on the 4th day 4 hours prior to the administration of formalin.
Animals were euthanized under hexobarbital anesthesia after 3, 7 and 14 days after the induction of arthritis. Prior to beginning of the experiment and prior to euthanasia, blood was taken from the ear vein, and was used to determine hematologic parameters.
For a pathomorphological study, the joints were extracted together with the surrounding tissues and fixed in 10% neutral formalin.

[3] = diclofenac 8 mg/kg, present agent 250 mg/kg
[4] = diclofenac 8 mg/kg, present agent 250 mg/kg, all observation periods

SMILES: O=C(O)Cc1ccccc1Nc1c(Cl)cccc1Cl [Diclofenac]
- influence on the volume of the inflammatory exudate in the abdominal cavity (peritonitis in rats; compared with Boswellik 100 and 130 mg/kg, rats and mice): considerably weaker influence
- Degree of the anti-exudative effect A = [Ro − Rk]/Rk100% (peritonitis in rats; rats): 24%
- Volume of the peritoneal exudate (peritonitis in rats; rats, n = 10): 3350 ± 220 µL
- influence on the synthesis of immunoglobulins [1]: specific immunomodulating influence on the synthesis of immunoglobulins
- Degree of the anti-exudative effect A = [Ro − Rk]/Rk100% (peritonitis in mice): 85%
- Volume of the peritoneal exudate (peritonitis in mice; n = 10): 37 ± 2 µL
- safety index (ratio of ulcerogenicity/efficacy) (nondescript mice): 4.3-9.9
- histological study of the joints, first observation ([2]; 3 days after the beginning (time printed for present agent only)): inflammatory and destructive changes were observed
- histological study of the joints, 7 days ([2]; 7 days): articulate surfaces had uneven outlines
- histological study of the joints, 14 days ([2]; 14 days): surface of articulate cartilages was smoothed down
- time until inflammatory process calmed down / destructive changes in articulate cartilages were reduced ([2]; diclofenac 8 mg/kg (most of the animals), present agent 250 mg/kg): 14 days
- average content of hemoglobin in the erythrocyte [2, 3]: decreased
- number of monocytes [2, 3]: not changed
- number of erythrocytes and hemoglobin in the peripheral blood ([2]; diclofenac 8 mg/kg, present agent 250 mg/kg, intragastric, vs initial level): substantially reduced
- number of granulocytes [2, 4]: increased
- number of leukocytes [2, 4]: insignificantly reduced
- level of thrombocytes ([2]; diclofenac 8 mg/kg, present agent 250 mg/kg, entire period of the study): decrease
- hematocrit ([2]; diclofenac 8 mg/kg, present agent 250 mg/kg, whole period of observation): reduced
